What was measured:
Format in all cases: cell-based
[1] = system: Ppargc1a; test: Ppargc1a log2Foldchanges, RNA isolated from stimulated KS-cells; settings: for effect on changes in Ppargc1a activity (in words): 3 and 7 days stimulation
Source text: Therein A=pentosan, B-indomethacin, and C=pioglitazone. The RNA is isolated after 3 and 7 days stimulation in KS-cells, respectively. Ppargcla is considered particularly relevant for mitochondrial activity. A higher value represents a higher activity.

[2] = system: Cox family of sub-unit proteins of mitochondrial complex 4; test: Gene expression Log2fold change, Cox family, KS483 cells; settings: 7 days of stimulation
[3] = system: Adiponectin gene expression in 3T3-L1 cells; test: qPCR adiponectin gene expression in 3T3-L1 cells; settings: 72 hours incubation, A 5.0 μg/ml, B 50 μM, C 1.0 μM
Experimental: • DMEM • 10% heat inactivated FCS • Compound A—5.0 μg/ml • Compound B-50 μM • Compound C-1.0 μM • Compound A+B • Compound A+C Protocol 3T3-L1 cell line • DMEM • 10% heat inactivated FCS • Compound A-[…] • Compound B-50 μM • Compound C-1.0 μM • Compound A+B • Compound A+C
In the of presence of: • 0.25 μM Dexamethasone & • 1 μg/ml Insulin • Therein A=pentosan, B=indomethacin, and C=pioglitazone.
Cells were stimulated at day 4 when they were sub confluent. After 72 hours of incubation, RNA was isolated from the cells.

[4] = system: Nduf family of sub-unit proteins of mitochondrial complex 1; test: Gene expression Log2fold change, Nduf family, KS483 cells; settings: 7 days of stimulation

## COc1ccc2c(c1)c(CC(=O)O)c(C)n2C(=O)c1ccc(Cl)cc1 [Compound B, indomethacin]
[1]
  effect on changes in Ppargc1a activity (in words): no measurable effect
[2]
  COX4iL Log2fold change: 0
  COX5a Log2fold change: 0
  COX5b Log2fold change: 0
  COX6b1 Log2fold change: 0
  COX7a2L Log2fold change: 0
  COX8a Log2fold change: 0
  COX15 Log2fold change: 0
  COX17 Log2fold change: 0
  COX19 Log2fold change: 0
  COX20 Log2fold change: 0
[3]
  effect on Adiponectin gene expression (FIG. 1): show adiponectin gene expression
[4]
  Nduf4 0 Log2fold change: 0
  Ndufa5 Log2fold change: 0
  Ndufa9 Log2fold change: 0
  Ndufa10 Log2fold change: 0
  Ndufab1 Log2fold change: 0
  Ndufaf7 Log2fold change: 0
  Ndufb3 Log2fold change: 0
  Ndufb4 Log2fold change: 0
  Ndufb9 Log2fold change: 0
  Ndufb10 Log2fold change: 0
  Ndufc1 Log2fold change: 0
  Ndufs10 Log2fold change: 0
  Ndufs20 Log2fold change: 0
  Ndufv1 Log2fold change: 0
  Ndufv3 Log2fold change: 0

## pentosan polysulphate [Compound A]
[1]
  effect on changes in Ppargc1a activity (in words): some effect
[1]; 3 days stimulation
  Ppargc1a log2Foldchanges: 1.14
[1]; 7 days stimulation
  Ppargc1a log2Foldchanges: 1.3
[2]
  COX4iL Log2fold change: 0
  COX5a Log2fold change: 0.31
  COX5b Log2fold change: 0
  COX6b1 Log2fold change: 0
  COX7a2L Log2fold change: −0.42
  COX8a Log2fold change: 0
  COX15 Log2fold change: 0
  COX17 Log2fold change: 0
  COX19 Log2fold change: 0
  COX20 Log2fold change: 0
[3]
  effect on Adiponectin gene expression (FIG. 1): hardly any effect
[4]
  Nduf4 0 Log2fold change: 0
  Ndufa5 Log2fold change: 0
  Ndufa9 Log2fold change: 0
  Ndufa10 Log2fold change: 0
  Ndufab1 Log2fold change: 0
  Ndufaf7 Log2fold change: 0
  Ndufb3 Log2fold change: 0
  Ndufb4 Log2fold change: 0
  Ndufb9 Log2fold change: 0
  Ndufb10 Log2fold change: 0
  Ndufc1 Log2fold change: 0
  Ndufs10 Log2fold change: 0
  Ndufs20 Log2fold change: 0
  Ndufv1 Log2fold change: 0
  Ndufv3 Log2fold change: 0

## CCc1ccc(CCOc2ccc(CC3SC(=O)NC3=O)cc2)nc1 (stereo not drawn) [Compound C, pioglitazone]
[2]
  COX4iL Log2fold change: 0
  COX5a Log2fold change: 0
  COX5b Log2fold change: 0
  COX6b1 Log2fold change: 0
  COX7a2L Log2fold change: 0
  COX8a Log2fold change: 0
  COX15 Log2fold change: 0
  COX17 Log2fold change: 0
  COX19 Log2fold change: 0
  COX20 Log2fold change: 0
[4]
  Nduf4 0 Log2fold change: 0
  Ndufa5 Log2fold change: 0.57
  Ndufa9 Log2fold change: 0
  Ndufa10 Log2fold change: 0
  Ndufab1 Log2fold change: 0
  Ndufaf7 Log2fold change: 0.35
  Ndufb3 Log2fold change: 0
  Ndufb4 Log2fold change: 0
  Ndufb9 Log2fold change: 0
  Ndufb10 Log2fold change: 0
  Ndufc1 Log2fold change: 0
  Ndufs10 Log2fold change: 0
  Ndufs20 Log2fold change: 0
  Ndufv1 Log2fold change: 0
  Ndufv3 Log2fold change: 0
